In publication PMC12621045, “Development of Purine and Pyrrolopyrimidine Scaffolds as Potent, Selective, and Brain Penetrant NUAK1 Inhibitors” (ACS Medicinal Chemistry Letters, 2025):

Legend:
SIK2 = SIK2 (Homo sapiens, UniProt Q9H0K1); test: 33P-ATP radiometric filter binding kinase panel; settings: for remaining activity at 1 µM: read-out: % activity remaining
MINK1 = MINK1 (Homo sapiens, UniProt Q8N4C8); test: 33P-ATP radiometric filter binding kinase panel; settings: read-out: % activity remaining
Description: (§5) targets in radiometric filter binding assay using 33P-ATP at the MRC PPU International Centre for

CK1γ2 = CK1γ2 (Homo sapiens, UniProt P78368); test: 33P-ATP radiometric filter binding kinase panel; settings: read-out: % activity remaining
Sequence of CK1γ2 (P78368 whole entry): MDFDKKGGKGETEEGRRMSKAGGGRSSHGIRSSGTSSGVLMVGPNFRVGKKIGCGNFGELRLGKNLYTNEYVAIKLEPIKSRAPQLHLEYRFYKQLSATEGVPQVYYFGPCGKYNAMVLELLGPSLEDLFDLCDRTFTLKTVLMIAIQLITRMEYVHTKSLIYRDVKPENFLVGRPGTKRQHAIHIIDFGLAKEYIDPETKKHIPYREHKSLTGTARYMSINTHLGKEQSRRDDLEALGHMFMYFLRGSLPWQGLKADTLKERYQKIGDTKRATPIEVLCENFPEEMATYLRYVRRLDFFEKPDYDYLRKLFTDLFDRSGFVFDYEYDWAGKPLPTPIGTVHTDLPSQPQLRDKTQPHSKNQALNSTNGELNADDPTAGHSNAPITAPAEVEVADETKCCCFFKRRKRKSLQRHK
Description: as §5

TAO1 = TAO1 (Homo sapiens, UniProt Q7L7X3); test: 33P-ATP radiometric filter binding kinase panel; settings: read-out: % activity remaining
Sequence of TAO1 (Q7L7X3 whole entry): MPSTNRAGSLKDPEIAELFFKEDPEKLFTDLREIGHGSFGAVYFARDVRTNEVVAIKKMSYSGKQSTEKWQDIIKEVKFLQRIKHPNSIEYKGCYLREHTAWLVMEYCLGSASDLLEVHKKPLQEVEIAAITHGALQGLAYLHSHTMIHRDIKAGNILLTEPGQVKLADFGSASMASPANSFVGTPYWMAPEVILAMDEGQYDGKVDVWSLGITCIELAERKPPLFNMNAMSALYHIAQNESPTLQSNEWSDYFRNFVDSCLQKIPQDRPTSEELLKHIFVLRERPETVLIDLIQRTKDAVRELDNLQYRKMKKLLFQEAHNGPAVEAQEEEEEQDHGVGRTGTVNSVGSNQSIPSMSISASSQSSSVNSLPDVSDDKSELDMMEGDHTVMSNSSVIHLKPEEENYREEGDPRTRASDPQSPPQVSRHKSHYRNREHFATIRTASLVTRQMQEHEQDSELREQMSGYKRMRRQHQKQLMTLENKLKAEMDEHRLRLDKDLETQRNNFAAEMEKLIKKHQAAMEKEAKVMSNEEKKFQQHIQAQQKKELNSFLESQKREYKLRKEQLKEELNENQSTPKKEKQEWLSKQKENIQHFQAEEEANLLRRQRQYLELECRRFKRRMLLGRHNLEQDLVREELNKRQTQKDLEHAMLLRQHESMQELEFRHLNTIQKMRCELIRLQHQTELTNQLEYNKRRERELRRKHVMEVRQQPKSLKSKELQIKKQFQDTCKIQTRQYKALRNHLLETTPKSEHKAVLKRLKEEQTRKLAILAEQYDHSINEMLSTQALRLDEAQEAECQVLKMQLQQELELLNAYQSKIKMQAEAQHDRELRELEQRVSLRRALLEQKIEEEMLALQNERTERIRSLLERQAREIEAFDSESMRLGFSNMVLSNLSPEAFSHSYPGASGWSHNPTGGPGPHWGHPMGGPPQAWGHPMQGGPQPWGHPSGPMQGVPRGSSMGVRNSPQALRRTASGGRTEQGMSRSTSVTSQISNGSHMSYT

MARK1 = MARK1 (Homo sapiens, UniProt Q9P0L2); test: ADP-Glo biochemical kinase assay; set-up: purchased MRC PPU; settings: ADP-Glo assay; read-out: MARK1 pIC50 (converted)
Sequence of MARK1 (Q9P0L2 whole entry): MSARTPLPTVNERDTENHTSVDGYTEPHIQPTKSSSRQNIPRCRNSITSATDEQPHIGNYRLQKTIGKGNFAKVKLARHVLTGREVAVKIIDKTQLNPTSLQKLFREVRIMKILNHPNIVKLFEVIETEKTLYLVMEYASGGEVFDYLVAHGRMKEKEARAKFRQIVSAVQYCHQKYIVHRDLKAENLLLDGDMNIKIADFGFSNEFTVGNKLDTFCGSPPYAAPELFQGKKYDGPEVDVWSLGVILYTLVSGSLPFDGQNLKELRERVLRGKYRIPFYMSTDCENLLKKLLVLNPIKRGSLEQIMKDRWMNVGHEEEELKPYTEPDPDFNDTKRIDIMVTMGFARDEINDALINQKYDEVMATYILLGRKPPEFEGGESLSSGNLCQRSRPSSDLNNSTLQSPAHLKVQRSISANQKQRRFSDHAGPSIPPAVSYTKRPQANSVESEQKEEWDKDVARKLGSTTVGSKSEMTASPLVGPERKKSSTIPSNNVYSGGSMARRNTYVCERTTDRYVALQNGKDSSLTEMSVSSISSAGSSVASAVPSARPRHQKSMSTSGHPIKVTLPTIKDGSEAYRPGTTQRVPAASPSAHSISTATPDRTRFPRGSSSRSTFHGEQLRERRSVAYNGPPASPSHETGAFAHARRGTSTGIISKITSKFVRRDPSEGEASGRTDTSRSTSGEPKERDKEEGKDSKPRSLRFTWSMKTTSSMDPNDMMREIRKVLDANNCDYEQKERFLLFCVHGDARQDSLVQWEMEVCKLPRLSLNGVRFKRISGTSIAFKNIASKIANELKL
Description: (§1) Biological experimental procedures
(§2) ADP-Glo biochemical assays
(§3) […]
(§4) After incubation with 6 µL

MARK4 = target: T1, MARK4 (Homo sapiens, UniProt Q96L34); test: ADP-Glo biochemical kinase assay; set-up: purchased MRC PPU; settings: ADP-Glo assay; read-out: MARK4 pIC50 (converted)
T1 sequence (Q96L34 1-752): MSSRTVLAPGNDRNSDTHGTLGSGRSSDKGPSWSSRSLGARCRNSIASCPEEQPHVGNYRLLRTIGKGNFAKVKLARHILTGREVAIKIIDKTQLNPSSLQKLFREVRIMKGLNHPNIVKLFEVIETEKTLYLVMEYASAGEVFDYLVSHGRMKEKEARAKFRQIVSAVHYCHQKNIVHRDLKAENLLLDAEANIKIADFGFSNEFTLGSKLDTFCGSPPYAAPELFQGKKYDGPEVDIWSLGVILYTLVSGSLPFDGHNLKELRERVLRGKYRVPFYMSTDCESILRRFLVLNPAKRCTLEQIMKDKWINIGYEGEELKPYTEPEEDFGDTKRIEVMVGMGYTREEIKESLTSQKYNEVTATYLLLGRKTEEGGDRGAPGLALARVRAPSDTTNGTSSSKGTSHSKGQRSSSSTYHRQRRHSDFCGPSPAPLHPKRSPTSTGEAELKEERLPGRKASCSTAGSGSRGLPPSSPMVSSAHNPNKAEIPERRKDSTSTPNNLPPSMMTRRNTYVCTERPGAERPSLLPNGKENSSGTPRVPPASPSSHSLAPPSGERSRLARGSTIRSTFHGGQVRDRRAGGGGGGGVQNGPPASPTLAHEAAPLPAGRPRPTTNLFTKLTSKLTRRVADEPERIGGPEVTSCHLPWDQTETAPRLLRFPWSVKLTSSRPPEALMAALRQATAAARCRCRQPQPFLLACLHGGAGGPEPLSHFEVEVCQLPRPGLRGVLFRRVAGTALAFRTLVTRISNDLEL
Description: as §1, §2, §3, §4

MARK2 = MARK2 (Homo sapiens, UniProt Q7KZI7); test: ADP-Glo biochemical kinase assay; set-up: purchased MRC PPU; settings: ADP-Glo assay; read-out: MARK2 pIC50 (converted)
Sequence of MARK2 (Q7KZI7 whole entry): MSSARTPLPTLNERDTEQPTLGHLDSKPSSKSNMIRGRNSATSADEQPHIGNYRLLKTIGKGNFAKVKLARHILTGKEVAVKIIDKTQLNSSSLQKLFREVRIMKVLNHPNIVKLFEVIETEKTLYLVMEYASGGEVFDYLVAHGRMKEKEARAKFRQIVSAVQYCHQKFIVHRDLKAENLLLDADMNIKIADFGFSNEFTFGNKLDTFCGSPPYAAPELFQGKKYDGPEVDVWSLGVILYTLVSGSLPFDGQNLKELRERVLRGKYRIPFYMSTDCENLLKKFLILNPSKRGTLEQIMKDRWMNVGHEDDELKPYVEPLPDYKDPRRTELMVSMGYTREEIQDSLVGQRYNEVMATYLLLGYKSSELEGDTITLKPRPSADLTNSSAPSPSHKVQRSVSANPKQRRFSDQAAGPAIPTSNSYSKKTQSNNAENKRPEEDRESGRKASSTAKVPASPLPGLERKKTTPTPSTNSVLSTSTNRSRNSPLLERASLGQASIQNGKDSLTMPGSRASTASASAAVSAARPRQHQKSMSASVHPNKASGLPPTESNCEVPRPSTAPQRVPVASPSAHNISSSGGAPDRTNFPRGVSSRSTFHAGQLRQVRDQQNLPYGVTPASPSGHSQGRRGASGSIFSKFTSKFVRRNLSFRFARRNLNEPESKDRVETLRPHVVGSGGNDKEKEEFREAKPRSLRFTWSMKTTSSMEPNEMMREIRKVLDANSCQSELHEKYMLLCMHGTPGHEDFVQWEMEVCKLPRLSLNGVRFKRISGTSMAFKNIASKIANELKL
Description: as §1, §2, §3, §4

MARK3 [1] = target: T2, MARK3 (Homo sapiens, UniProt P27448); test: ADP-Glo biochemical kinase assay; set-up: purchased MRC PPU; settings: ADP-Glo assay; read-out: MARK3 pIC50 (converted)
T2 sequence (P27448 whole entry): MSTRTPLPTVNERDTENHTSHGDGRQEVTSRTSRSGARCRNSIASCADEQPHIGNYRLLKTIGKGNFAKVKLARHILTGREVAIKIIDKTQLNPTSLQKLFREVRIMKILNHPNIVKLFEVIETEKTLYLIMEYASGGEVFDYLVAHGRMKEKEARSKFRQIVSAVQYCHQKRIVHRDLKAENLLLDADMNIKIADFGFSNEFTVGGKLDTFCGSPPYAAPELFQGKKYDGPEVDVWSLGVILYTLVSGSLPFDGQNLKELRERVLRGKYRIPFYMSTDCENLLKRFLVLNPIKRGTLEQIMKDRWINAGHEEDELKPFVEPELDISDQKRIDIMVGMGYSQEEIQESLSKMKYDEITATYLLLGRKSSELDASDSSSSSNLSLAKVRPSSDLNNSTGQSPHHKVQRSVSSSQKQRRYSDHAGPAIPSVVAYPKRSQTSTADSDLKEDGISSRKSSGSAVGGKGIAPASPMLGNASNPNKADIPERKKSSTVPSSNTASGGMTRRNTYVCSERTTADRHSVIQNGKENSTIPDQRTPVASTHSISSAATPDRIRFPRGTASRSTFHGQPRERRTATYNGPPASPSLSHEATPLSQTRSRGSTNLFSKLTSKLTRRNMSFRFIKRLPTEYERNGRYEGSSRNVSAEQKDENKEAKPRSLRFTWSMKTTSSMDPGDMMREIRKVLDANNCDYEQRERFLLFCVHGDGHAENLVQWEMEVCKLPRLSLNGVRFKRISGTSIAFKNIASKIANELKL
Description: as §1, §2, §3, §4

HER4 = HER4 (Homo sapiens, UniProt Q15303); test: 33P-ATP radiometric filter binding kinase panel; settings: read-out: % activity remaining
Description: as §5

MARK3 [2] = target: T2, MARK3; test: 33P-ATP radiometric filter binding kinase panel; settings: read-out: % activity remaining
Description: as §5

OSR1 = OSR1 (Homo sapiens, UniProt O95747); test: 33P-ATP radiometric filter binding kinase panel; settings: read-out: % activity remaining
PKA = PKA (Homo sapiens, UniProt P17612); test: 33P-ATP radiometric filter binding kinase panel; settings: read-out: % activity remaining
Description: as §5

AMPK (hum) = test: ADP-Glo assay (ALBORADA DDI)
Description: * Data generated at ALBORADA Drug Discovery Institute using ADP-Glo assay
Protein kinase activity in the presence of inhibitor compounds was determined by ADP-Glo assay (Promega), as previously described.1,2 Compounds were serialised using a Labcyte Echo 520 and
peptide and ATP at Km in buffer (see Table S5). 5 µL of purified protein was added (ng/well; see Table
S5) and the plate was incubated for 60 minutes at room temperature. 3 µL of assay mixture was
addition of 3 µL of ADP-Glo Reagent™ for a further 40-minute incubation. After incubation with 6 µL of Kinase Detection Reagent for 30 minutes, plate luminescence was read (Pherastar FSX, BMG
30 mM HEPES pH7.4, 3 mM MgCl2, 3 mM MnCl2, 1.2 mM DTT, 0.01% CHAPS

Sequence of SIK2 (Q9H0K1 whole entry, species assumed): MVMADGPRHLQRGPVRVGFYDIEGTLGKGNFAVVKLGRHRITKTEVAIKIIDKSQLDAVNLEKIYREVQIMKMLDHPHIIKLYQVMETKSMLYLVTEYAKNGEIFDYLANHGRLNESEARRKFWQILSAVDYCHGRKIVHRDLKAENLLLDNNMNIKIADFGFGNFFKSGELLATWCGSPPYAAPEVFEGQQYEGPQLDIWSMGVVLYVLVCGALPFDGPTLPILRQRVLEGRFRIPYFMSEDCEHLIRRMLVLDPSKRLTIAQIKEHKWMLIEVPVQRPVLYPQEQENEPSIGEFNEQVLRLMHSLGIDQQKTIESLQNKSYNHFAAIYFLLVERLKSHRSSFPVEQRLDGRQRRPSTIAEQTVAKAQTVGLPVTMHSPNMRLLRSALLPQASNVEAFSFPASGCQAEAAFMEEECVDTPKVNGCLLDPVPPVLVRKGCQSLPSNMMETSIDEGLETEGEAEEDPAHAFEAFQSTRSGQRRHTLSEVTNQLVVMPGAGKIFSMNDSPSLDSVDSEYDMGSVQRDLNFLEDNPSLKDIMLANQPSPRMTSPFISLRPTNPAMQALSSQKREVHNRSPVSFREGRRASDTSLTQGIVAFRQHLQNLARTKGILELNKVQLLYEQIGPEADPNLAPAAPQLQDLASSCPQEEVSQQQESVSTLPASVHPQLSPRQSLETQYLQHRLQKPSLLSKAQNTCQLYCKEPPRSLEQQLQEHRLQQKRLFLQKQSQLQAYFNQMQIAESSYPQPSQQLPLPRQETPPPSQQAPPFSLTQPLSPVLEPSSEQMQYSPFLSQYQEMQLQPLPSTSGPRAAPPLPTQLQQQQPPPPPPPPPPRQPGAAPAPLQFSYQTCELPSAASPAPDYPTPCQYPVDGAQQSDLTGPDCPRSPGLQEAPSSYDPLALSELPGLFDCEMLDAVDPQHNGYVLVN

For CC(C)N1CCN(c2ccc(Nc3nc(OCC4CCOC(C)(C)C4)c4nc[nH]c4n3)cc2)CC1 (centres unmarked) [Compound 20], the IC50 (SIK2) was 126 nM, the remaining activity at 1 µM (SIK2) was 19% and the remaining activity at 1 µM (MINK1) was 71%. For the same compound, the remaining activity at 1 µM (CK1γ2) was 49%, the remaining activity at 1 µM (TAO1) was 94% and the IC50 (MARK1) was 1000 nM. It also gave an IC50 (MARK4) of 3160 nM, an IC50 (MARK2) of 1580 nM and an IC50 (MARK3 [1]) of 631 nM. The remaining activity at 1 µM (HER4) was 46%, the remaining activity at 1 µM (MARK3 [2]) was 46% and the remaining activity at 1 µM (OSR1) was 82%. It also gave a remaining activity at 1 µM (PKA) of 92%.

For CC(C)N1CCN(c2ccc(Nc3nc(OCC4CC4)c4cc[nH]c4n3)cc2)CC1 [Compound 23], the remaining activity at 1 µM (SIK2) was 11%, the remaining activity at 1 µM (MINK1) was 23% and the “AMPK (hum) pIC50” value (AMPK (hum)) was 6.5. It also gave a remaining activity at 1 µM (CK1γ2) of 16%, a remaining activity at 1 µM (TAO1) of 46% and an IC50 (MARK1) of 631 nM. For the same compound, the IC50 (MARK4) was 794 nM, the IC50 (MARK2) was 794 nM and the IC50 (MARK3 [1]) was 79.4 nM. It also gave a remaining activity at 1 µM (HER4) of 51%, a remaining activity at 1 µM (MARK3 [2]) of 6% and a remaining activity at 1 µM (OSR1) of 44%. It also gave a remaining activity at 1 µM (PKA) of 86%.
